Results from ChEMBL document CHEMBL3792388, “Ecdysones from Zoanthus spp. with inhibitory activity against dengue virus 2” (Bioorg Med Chem Lett, 2016).
pEC50: −log10 of the molar value.

Tests used:
dengue virus type 2 = test: Antiviral activity against Dengue virus 2 DN454009A infected in human HuH7 cells assessed as inhibition of viral RNA level measured 72 hrs post infection by qRT-PCR method; assay type: functional, organism-based; settings: Huh-7, 72 h
[1] = Cytotoxicity against human HuH7 cells assessed as reduction in cell viability after 72 hrs by MTS assay; assay type: cell-based, Huh-7
[2] = Selectivity index, ratio of CC50 for human HuH7 cells to EC50 for Dengue virus 2 DN454009A infected in human HuH7 cells; assay type: toxicity, cell-based, Huh-7; settings: read-out: Ratio CC50/EC50
dengue virus type 3 = test: Antiviral activity against Dengue virus 3 DN8700829A infected in human HuH7 cells assessed as inhibition of viral RNA level measured 72 hrs post infection by qRT-PCR method; assay type: functional, organism-based; settings: Huh-7, 72 h
dengue virus type 1 = test: Antiviral activity against Dengue virus 1 DN8700828 infected in human HuH7 cells assessed as inhibition of viral RNA level measured 72 hrs post infection by qRT-PCR method; assay type: functional, organism-based; settings: DN8700828, Huh-7, 72 h
dengue virus type 4 = test: Antiviral activity against Dengue virus 4 S9201818 infected in human HuH7 cells assessed as inhibition of viral RNA level measured 72 hrs post infection by qRT-PCR method; assay type: functional, organism-based; settings: S9201818, Huh-7, 72 h

SMILES | pEC50 (dengue virus type 2) | CC50 at 72 h [1] | selectivity ratio [2] | pEC50 (dengue virus type 3) | pEC50 (dengue virus type 1) | pEC50 (dengue virus type 4)
CC(C)(O)CC[C@@H](O)[C@](C)(O)[C@H]1CC[C@@]2(O)C3=CC(=O)[C@@H]4C[C@@H](O)CC[C@]4(C)[C@H]3CC[C@]12C | < 4.00 | > 700 µM | – | – | – | –
CC(=O)O[C@@H]1C[C@H]2C(=O)C=C3[C@H](CC[C@]4(C)[C@@H]([C@@](C)(O)[C@H](O)CCC(C)(C)O)CC[C@@]34O)[C@@]2(C)C[C@@H]1O | 4.06 | > 700 µM | > 8 | – | – | –
CC(C)CC[C@@H](O)[C@](C)(O)[C@H]1CC[C@@]2(O)C3=CC(=O)[C@@H]4C[C@@H](O)[C@@H](O)C[C@]4(C)[C@H]3[C@H](O)C[C@]12C | 5.00 | > 700 µM | > 69.7 | 5.02 | 4.80 | 4.92
CC(=O)OC(C)(C)CC[C@@H](O)[C@](C)(O)[C@H]1CC[C@@]2(O)C3=CC(=O)[C@@H]4C[C@@H](O)[C@@H](O)C[C@]4(C)[C@H]3CC[C@]12C | 4.40 | > 700 µM | > 17.6 | – | – | –
CC(=O)OC(C)(C)CC[C@@H](O)[C@](C)(O)[C@H]1CC[C@@]2(O)C3=CC(=O)[C@@H]4C[C@@H](O)[C@@H](O)C[C@]4(C)[C@H]3[C@H](O)C[C@]12C | 4.71 | > 700 µM | > 36.7 | – | – | –
C=C(C[C@@H](O)[C@](C)(O)[C@H]1CC[C@@]2(O)C3=CC(=O)[C@@H]4C[C@@H](O)[C@@H](O)C[C@]4(C)[C@H]3CC[C@]12C)C(C)(C)O | < 4.00 | > 700 µM | – | – | – | –
C[C@H](O)[C@H]1CC[C@@]2(O)C3=CC(=O)[C@@H]4C[C@@H](O)[C@@H](O)C[C@]4(C)[C@H]3CC[C@]12C | < 4.00 | > 700 µM | – | – | – | –
C[C@@]1(O)[C@H](O)[C@@H](CO)O[C@H]1n1ccc(N)nc1=O | 4.95 | 94.8 µM | > 8.5 | – | – | –
CC(C)(O)CC[C@@H](O)[C@](C)(O)[C@H]1CC[C@@]2(O)C3=CC(=O)[C@@H]4C[C@@H](O)[C@@H](O)C[C@]4(C)[C@H]3CC[C@]12C [20-HYDROXYECDYSONE] | 4.27 | > 700 µM | > 13.1 | – | – | –
C[C@H]([C@H](O)CCC(C)(C)O)[C@H]1CC[C@@]2(O)C3=CC(=O)[C@@H]4C[C@@H](O)[C@@H](O)C[C@]4(C)[C@H]3CC[C@]12C [ECDYSONE] | 4.27 | > 700 µM | > 12.9 | – | – | –
CC(CO)CC[C@@H](O)[C@](C)(O)[C@H]1CC[C@@]2(O)C3=CC(=O)[C@@H]4C[C@@H](O)[C@@H](O)C[C@]4(C)[C@H]3CC[C@]12C (some centres not stated) [INOKOSTERONE] | < 4.00 | > 700 µM | – | – | – | –
CC(C)CC[C@@H](O)[C@](C)(O)[C@H]1CC[C@@]2(O)C3=CC(=O)[C@@H]4C[C@@H](O)[C@@H](O)C[C@]4(C)[C@H]3CC[C@]12C [PONASTERONE A] | < 4.00 | > 700 µM | – | – | – | –
CC(C)(O)CC[C@@H](O)[C@](C)(O)[C@H]1CC[C@@]2(O)C3=CC(=O)[C@@H]4C[C@@H](O)[C@@H](O)C[C@]4(C)[C@H]3[C@H](O)C[C@]12C [TURKESTERONE] | 4.42 | > 700 µM | > 18.3 | – | – | –
